Assay results published in paper PMC8617681 (Pharmaceuticals, 2021).

How the values were obtained:
human OATP1B3 = target: T1, human OATP1B3 (Homo sapiens, UniProt Q9NPD5); assay: Cellular uptake in OATP1B3-overexpressing HEK293 cells; format: in vitro ADME; conditions: 5 µM, 2.5 min incubation, HEK293 OATP1B3
T1 construct: Werner Siegmund and Dr. Markus Keiser (University of Greifswald); host or cells: HEK293
T1 sequence (Q9NPD5 1-702): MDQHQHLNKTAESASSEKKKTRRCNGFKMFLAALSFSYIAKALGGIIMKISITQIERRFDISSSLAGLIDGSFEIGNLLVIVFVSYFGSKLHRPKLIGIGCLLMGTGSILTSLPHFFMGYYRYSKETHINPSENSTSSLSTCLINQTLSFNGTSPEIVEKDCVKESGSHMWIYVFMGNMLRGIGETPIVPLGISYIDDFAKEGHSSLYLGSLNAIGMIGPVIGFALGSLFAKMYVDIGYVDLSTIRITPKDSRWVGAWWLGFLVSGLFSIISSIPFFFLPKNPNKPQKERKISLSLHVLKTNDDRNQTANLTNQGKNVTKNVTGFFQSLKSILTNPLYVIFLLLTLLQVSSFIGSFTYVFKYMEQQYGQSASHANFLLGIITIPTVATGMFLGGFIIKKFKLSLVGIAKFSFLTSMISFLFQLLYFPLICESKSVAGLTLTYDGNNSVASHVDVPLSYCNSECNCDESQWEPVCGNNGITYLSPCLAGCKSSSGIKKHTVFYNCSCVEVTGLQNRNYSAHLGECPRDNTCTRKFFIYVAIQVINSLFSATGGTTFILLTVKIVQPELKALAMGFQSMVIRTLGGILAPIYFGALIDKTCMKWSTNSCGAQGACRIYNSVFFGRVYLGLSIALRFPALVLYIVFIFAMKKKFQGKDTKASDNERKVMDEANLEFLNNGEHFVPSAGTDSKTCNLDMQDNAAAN
Procedure: HEK293 cells, vector-transfected or human (h)SLCO1A2, hSLCO1B1 or hSLCO1B3 cDNA-transfected were kind gifts from Prof. Werner Siegmund and Dr. Markus Keiser (University of Greifswald, Greifswald, Germany). All the HEK293 cell lines were maintained in DMEM supplemented with 10% (v/v) FBS, 1% penicillin–streptomycin mix at 37 °C in 5% (v/v) CO2 and 500 μg/mL G418. Cells were first seeded in 12-well plates [coated with 50 mg/L poly (l-lysine) and 50 mg/L poly (l-ornithine)] at a density of 1.0 × 10^5 cells/well. For the uptake study, in order to induce the expression of OATP transporters, the cell culture medium was replaced with culture medium supplemented with 5 mM sodium butyrate 24 h before performing the uptake assay.
The uptake transport study was performed as described previously. […] The Krebs–Henseleit solution was prepared from Krebs–Henseleit-buffer modified powder and supplemented with 25 mM NaHCO3 and 2.5 mM CaCl2 adjusted to pH 6.4 with 1 M HCL. At 2.5 min, the incubation buffer was removed, and uptake was terminated by adding 1 mL of ice-cold Krebs–Henseleit buffer, followed by two times washing with 1 mL of ice-cold Krebs–Henseleit buffer. […] The cellular protein amount was determined by the Bradford method using 10 μL of the cell lysates with bovine serum albumin as a standard.

[1] = 8 h pharmacokinetic study in wild-type, Cyp3a-/- and Cyp3aXAV mice; conditions: mouse, in vivo, po, 10 mg/kg; for concentration at 8 h / AUC(0-t) / Cmax / Tmax / SIC percentage of dose: female; for SIC percentage of dose: 8 h
Procedure: Many drugs and prodrugs are metabolized by CYP3A, which can therefore restrict their oral exposure.
Mice were housed and handled according to institutional guidelines complying with Dutch and EU legislation. All experimental animal protocols were evaluated and approved by the institutional animal care and use committee. Wild-type, Abcb1a/1b^-/-, Abcg2^-/-, Abcb1a/1b; Abcg2^-/-, Slco1a/1b^-/- male mice, and Cyp3a^-/- and Cyp3aXAV female mice, all of a >99% FVB genetic background, were used between 9 and 16 weeks of age. […] All experimental animal protocols (WP9450, 9669, 9760), including power calculations, designed under the nationally approved DEC/CCD project AVD301002016595, were evaluated and approved by the institutional animal care and use committee of The Netherlands Cancer Institute. […]
For the 4 h transporter experiments, tail-vein blood samples were collected at 0.125, 0.25, 0.5, 1, and 2 h time points after oral administration, respectively. For the CYP3A 8 h experiments, tail-vein blood sampling was performed at 0.25, 0.5, 1, 2, and 4 h, respectively. While for elacridar inhibition experiments, tail-vein blood samples were collected at 0.125, 0.25, 0.5, and 1 h time points after oral administration, respectively. Blood sample collection was performed using microvettes containing dipotassium EDTA. At the last time point in each experiment (2, 4 or 8 h), mice were anesthetized with 5% isoflurane and blood was collected by cardiac puncture. Blood samples were collected in Eppendorf tubes containing heparin as an anticoagulant. The mice were then sacrificed by cervical dislocation and brain, liver, kidney, lung, small intestine and testis were rapidly removed. Plasma was isolated from the blood by centrifugation at 9000× g for 6 min at 4 °C, and the plasma fraction was collected and stored at −30 °C until analysis. Organs were homogenized with 4% (w/v) bovine serum albumin and stored at −30 °C until analysis.
Pharmacokinetic parameters were calculated by noncompartmental methods using the PK solver software. The area under the plasma concentration–time curve (AUC) was calculated using the trapezoidal rule, without extrapolating to infinity. The peak plasma concentration (Cmax) and the time of maximum plasma concentration (Tmax) were estimated from the original (individual mouse) data. One-way analysis of variance (ANOVA) was used when multiple groups were compared and the Tukey post hoc correction was used to accommodate multiple testing. The two-sided unpaired Student’s t-test was used when treatments or differences between two specific groups were compared using the software GraphPad Prism 8 (GraphPad Software Inc., La Jolla, CA, USA). All the data were log-transformed before statistical tests were applied. Differences were considered statistically significant when p < 0.05. All data are presented as geometric mean ± SD.

**Q.** Which “uptake compared to vector control cells” value (human OATP1B3) does the source give for `COc1ccc(CN2C3CC2CN(c2ccc(-c4cc(OCC(C)(C)O)cn5ncc(C#N)c45)cn2)C3)cn1` [selpercatinib] here?
**A.** The value was “did not observe any significant increase in the uptake”.

**Q.** What about the concentration at 8 h ([1]; Cyp3a-/- (>99% FVB genetic background), CLiver) of the same compound?
**A.** Its concentration at 8 h is 7900 ± 1270 ng/g.

**Q.** And the concentration at 8 h ([1]; Cyp3a-/- (>99% FVB genetic background), CSI (small intestine tissue concentration))?
**A.** Its concentration at 8 h is 6380 ± 930 ng/g.

**Q.** And the concentration at 8 h ([1]; Cyp3a-/- (>99% FVB genetic background), Cbrain)?
**A.** Its concentration at 8 h is 86.2 ± 24.2 ng/g.

**Q.** What about the concentration at 8 h ([1]; Cyp3aXAV (>99% FVB genetic background), CLiver) of the same compound?
**A.** Its concentration at 8 h is 4390 ± 755 ng/g.

**Q.** And the concentration at 8 h ([1]; Cyp3aXAV (>99% FVB genetic background), CSI (small intestine tissue concentration))?
**A.** The concentration at 8 h was 5030 ± 347 ng/g.

**Q.** What about the AUC(0-t) ([1]; FVB, Cyp3a-/-) of the same compound?
**A.** Its AUC(0-t) is 72200 ng·h/mL.

**Q.** And the Cmax ([1]; FVB, Cyp3a-/-)?
**A.** The Cmax was 12300 ng/mL.

**Q.** What about the Tmax ([1]; FVB, Cyp3a-/-) of the same compound?
**A.** Its Tmax is 1.4 ± 1.3 h.

**Q.** What about the “SIC percentage of dose” value ([1]; FVB, Cyp3a-/-) of the same compound?
**A.** The value was 1.4 ± 0.6 %.

**Q.** And the concentration at 8 h ([1]; FVB, Cyp3a-/-, CSIC (small intestine contents concentration))?
**A.** Its concentration at 8 h is 44900 ng/g.

**Q.** What about the AUC(0-t) ([1]; FVB, wild-type) of the same compound?
**A.** Its AUC(0-t) is 52300 ng·h/mL.

**Q.** And the Cmax ([1]; FVB, wild-type)?
**A.** The Cmax was 8560 ± 1300 ng/mL.

**Q.** What about the Tmax ([1]; FVB, wild-type) of the same compound?
**A.** Its Tmax is 1.5 ± 1.3 h.

**Q.** And the “SIC percentage of dose” value ([1]; FVB, wild-type)?
**A.** Its value is 2.5 ± 0.9%.

**Q.** And the concentration at 8 h ([1]; FVB, wild-type, CSIC (small intestine contents concentration))?
**A.** Its concentration at 8 h is 83900 ng/g.

**Q.** And the concentration at 8 h ([1]; FVB, wild-type, Cbrain)?
**A.** Its concentration at 8 h is 82.4 ± 16.8 ng/g.

**Q.** What about the AUC(0-t) [1] of the same compound?
**A.** Its AUC(0-t) is 45800 ng·h/mL.

**Q.** What about the Cmax [1] of the same compound?
**A.** The Cmax was 9480 ± 548 ng/mL.

**Q.** And the Tmax [1]?
**A.** Its Tmax is 0.29 ± 0.1 h.

**Q.** And the “SIC percentage of dose” value [1]?
**A.** The value was 1.5 ± 0.5%.

**Q.** And the concentration at 8 h ([1]; CSIC (small intestine contents concentration))?
**A.** Its concentration at 8 h is 48500 ng/g.

**Q.** What about the concentration at 8 h ([1]; Cbrain) of the same compound?
**A.** Its concentration at 8 h is 51 ± 15.2 ng/g.

**Q.** What about the concentration at 8 h ([1]; wild-type (>99% FVB genetic background), CLiver) of the same compound?
**A.** Its concentration at 8 h is 8260 ± 1620 ng/g.

**Q.** And the concentration at 8 h ([1]; wild-type (>99% FVB genetic background), CSI (small intestine tissue concentration))?
**A.** Its concentration at 8 h is 7300 ± 1120 ng/g.

**Q.** What about the “abnormal external behavior (acute toxicity)” value [1] of the same compound?
**A.** Its value is “did not observe any abnormal external behavior”.
